Data: patent US8623859B2, “Bradykinin B1 antagonists” (Evotec AG, priority 2008, dated 2014)
Structures can show the parent of a compound that is named as a salt.

Biological target: T1, human B1 (Homo sapiens, UniProt P46663)
T1 construct: host or cells: CHO-K1
T1 sequence (P46663 1-353): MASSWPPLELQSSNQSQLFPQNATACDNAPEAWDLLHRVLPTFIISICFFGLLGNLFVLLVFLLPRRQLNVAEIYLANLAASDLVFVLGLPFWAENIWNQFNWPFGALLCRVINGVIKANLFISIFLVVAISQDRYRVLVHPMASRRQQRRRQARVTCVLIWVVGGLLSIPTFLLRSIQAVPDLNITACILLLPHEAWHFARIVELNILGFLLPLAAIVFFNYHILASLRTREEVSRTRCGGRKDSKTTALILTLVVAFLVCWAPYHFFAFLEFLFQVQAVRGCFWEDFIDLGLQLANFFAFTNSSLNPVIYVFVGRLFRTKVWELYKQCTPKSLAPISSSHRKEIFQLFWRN
Test: Calcium flux assay for Bradykinin B1 antagonist, CHO-K1 cell line expressing human B1
Type: cell-based
Details: CHO-K1 cells expressing human B1, agonist Lys-(Des-Arg)-Bradykinin, read-out: Potency (IC50 value against human B1)
Protocol: Calcium Flux Assay for Bradykinin B1 Antagonist
The potency to inhibit the Bradykinin B1 receptors was determined for the compounds of this invention in a cell-based fluorescent calcium-mobilization assay. The assay measures the ability of test compounds to inhibit Bradykinin B1 receptor agonist-induced increase of intracellular free Ca^2+ in cell lines expressing B1.
The change of the intracellular Ca^2+ concentration is monitored with a specifically designed fluorescent plate reader (FlexStation, Molecular Devices).
CHO-K1 cell line expressing human B1 was purchased from Euroscreen (Gosselies, Belgium, with reference name hBl-D1). CHO-K1 cell lines expressing rat B1 or mouse B1 were established in the following way: the full-length receptor-coding cDNA clones were obtained by PCR performed on rat or mouse brain cDNAs. The respective cDNAs were cloned into an expression vector under the control of a CMV promotor. The resultant plasmids were introduced into CHO-K1 cells with liposome technology (FuGENE; Roche Diagnostics, Basel), according to the standard protocols described by the manufacturer. Cell lines expressing a Bradykinin receptor were selected in the culture medium containing 400 μg/ml G418 (Sigma). From selected cell populations, monoclonal cell lines were isolated by single cell cloning. The expression of Bradykinin receptors was confirmed by immunofluorescence staining of the cells, as well as by calcium flux assay.
Human B1-expressing cells were grown in Nutrient Mixture Ham's F12 (Sigma) containing 10% Foetal bovine serum (Sigma) and 400 μg/ml G418 (Sigma), 5 μg/ml puromycim (Sigma); Rat B1 and mouse B1-expressing cells were grown in DMEM/F12 medium (Sigma) containing 10% Foetal bovine serum (Sigma) and 400 μg/ml G418 (Sigma).
For the calcium flux assay, 80% confluent cells were detached from the culture vessels with Versene (Gibco; for human B1 cell-line) or with 1× trypsin-EDTA solution (Sigma; for rodent B1 cell-line), and seeded into 384-well plates (Cell binding Surface; Corning, N.Y.; #3683) at a density of 15,000 cells per well for human B1 or at a density of 20,000 cells per well for rodent B1. Cells were seeded in a volume of 50 μl in medium without antibiotics and incubated overnight in a humidified atmosphere with 5% CO2 at 37° C. The following day, the medium was replaced with 20 μl of 5 μM Fluo-4AM dye (Molecular Probes) in assay buffer (2.5 mM probenicid, 1 mg/ml pluronic acid, 0.1% BSA, 135 mM NaCl, 5 mM KCl, 1.8 mM CaCl, 1 mM MgCl2, 10 mM HEPES, 5.6 mM glucose, 0.05% gelatine, pH 7.4). The calcium indicator loaded cells were incubated at 37° C. for 2 hrs. Extracellular dye was then removed and each well was filled with 45 μl of assay buffer. Cell plates were kept in dark until used. Test compounds were assayed at 8 concentrations in triplicate. Serial 10-fold dilutions in 100% DMSO were made at a 100-times higher concentration than the final concentration, and then diluted 1:10 in assay buffer. 5 μl of each diluted compound was added to the well of cell plates (yielding final concentration with 1% DMSO), and incubated for 30 min at 25° C. before the addition of B1 agonist on the FlexStation.
The addition of agonist 20 μl per well to the assay plate was carried out on the FlexStation while continuously monitoring Ca^2+-dependent fluorescence at 538 nm. The integrated values, normalized with the background fluorescence, were plotted against the logarithm of the antagonist concentrations.

| Structure (SMILES) | IC50 [nM] |
| --- | --- |
| COc1cc(C)c(S(=O)(=O)N(C)Cc2noc(C(=O)N3CCN(CC4CCCN(C)C4)CC3)n2)c(C)c1 (centres unmarked) [Ex 303, 4-Methoxy-N,2,6-trimethyl-N-{[5-({4-[(1-methylpiperidin-3-yl)methyl]piperazin-1-yl}carbonyl)-1,2,4-oxadiazol-3-yl]methyl}benzenesulfonamide trifluoroacetamide] | 100 to 1000 |
| COc1cc(C)c(S(=O)(=O)N(C)Cc2nc(C(=O)N(C)Cc3nnc(CN4CCCC4)s3)co2)c(C)c1 [Ex 201, 2-({[(4-Methoxy-2,6-dimethylphenyl)sulfonyl](methyl)amino}methyl)-N-methyl-N-{[5-(pyrrolidin-1-ylmethyl)-1,3,4-thiadiazol-2-yl]methyl}-1,3-oxazole-4-carboxamide trifluoroacetate] | 100 to 1000 |
| COc1cc(C)c(S(=O)(=O)N(Cc2cc(C(=O)N3CCN(CCc4ccncc4)CC3)co2)C2CC2)c(C)c1 [Ex 110, N-Cyclopropyl-4-methoxy-2,6-dimethyl-N-[(4-{[4-(2-pyridin-4-ylethyl)piperazin-1-yl]carbonyl}furan-2-yl)methyl]benzenesulfonamide trifluoroacetate] | 100 to 1000 |
| COc1cc(C)c(S(=O)(=O)N(C)Cc2noc(C(=O)N3CCN(CCN4CCCC4)CC3)n2)c(C)c1 [Ex 308, 4-Methoxy-N,2,6-trimethyl-N-[(5-{[4-(2-pyrrolidin-1-ylethyl)piperazin-1-yl]carbonyl}-1,2,4-oxadiazol-3-yl)methyl]benzenesulfonamide] | 100 to 1000 |
| COc1cc(C)c(S(=O)(=O)N(Cc2nc(C(=O)N(C)Cc3ccc(CN4CCCC4)cc3)co2)C2CC2)c(C)c1 [Ex 75, 2-({Cyclopropyl[(4-methoxy-2,6-dimethylphenyl)sulfonyl]amino}methyl)-N-methyl-N-[4-(pyrrolidin-1-ylmethyl)benzyl]-1,3-oxazole-4-carboxamide] | < 10 |
| COc1cc(C)c(S(=O)(=O)N(Cc2nc(C(=O)N3CC4CCN(Cc5ccc(OC)nc5)CC4C3)co2)C2CC2)c(C)c1 (centres unmarked) [Ex 210, N-Cyclopropyl-4-methoxy-N-{[4-({5-[(6-methoxypyridin-3-yl)methyl]octahydro-2H-pyrrolo[3,4-c]pyridin-2-yl}carbonyl)-1,3-oxazol-2-yl]methyl}-2,6-dimethylbenzenesulfonamide trifluoroacetate] | 10 to 100 |
| COc1cc(C)c(S(=O)(=O)N(C)Cc2nnc(C(=O)N3CCN(C4CCN(C)CC4)CC3)o2)c(C)c1 [Ex 270, 4-Methoxy-N,2,6-trimethyl-N-[(5-{[4-(1-methylpiperidin-4-yl)piperazin-1-yl]carbonyl}-1,3,4-oxadiazol-2-yl)methyl]benzenesulfonamide trifluoroacetamide] | 100 to 1000 |
| COc1cc(C)c(S(=O)(=O)N(Cc2nc(C(=O)N3CCN(C4CCN(C)CC4)CC3)co2)C2CC2)c(C)c1 [Ex 165, N-Cyclopropyl-4-methoxy-2,6-dimethyl-N-[(4-{[4-(1-methylpiperidin-4-yl)piperazin-1-yl]carbonyl}-1,3-oxazol-2-yl)methyl]benzenesulfonamide] | < 10 |
| COc1cc(C)c(S(=O)(=O)N(C)Cc2nnc(C(=O)N3CCN(CCN4CCCC4)CC3)s2)c(C)c1 [Ex 326, 4-Methoxy-N,2,6-trimethyl-N-[(5-{[4-(2-pyrrolidin-1-ylethyl)piperazin-1-yl]carbonyl}-1,3,4-thiadiazol-2-yl)methyl]benzenesulfonamide] | 100 to 1000 |
| COc1cc(C)c(S(=O)(=O)N(Cc2nc(C(=O)N(C)Cc3ccc(CN4CCC(C(=O)N(C)C)C4)cc3)co2)C2CC2)c(C)c1 (centres unmarked) [Ex 186, 2-({Cyclopropyl[(4-methoxy-2,6-dimethylphenyl)sulfonyl]amino}methyl)-N-(4-{[3-(dimethylcarbamoyl)pyrrolidin-1-yl]methyl}benzyl)-N-methyl-1,3-oxazole-4-carboxamide] | < 10 |
| COc1cc(C)c(S(=O)(=O)N(Cc2cc(C(=O)N3CCN(CCN4CCCC4)CC3)co2)C2CC2)c(C)c1 [Ex 112, N-Cyclopropyl-4-methoxy-2,6-dimethyl-N-[(4-{[4-(2-pyrrolidin-1-ylethyl)piperazin-1-yl]carbonyl}furan-2-yl)methyl]benzenesulfonamide trifluoroacetate] | 10 to 100 |
| COc1cc(C)c(S(=O)(=O)N(C)Cc2cc(C(=O)N(C)CCc3ccc(C4=NCCN4)cc3)co2)c(C)c1 [Ex 5, N-{2-[4-(4,5-dihydro-1H-imidazol-2-yl)phenyl]ethyl}-5-({[(4-methoxy-2,6-dimethylphenyl)sulfonyl](methyl)amino}methyl)-N-methylfuran-3-carboxamide] | < 10 |
| COc1cc(C)c(S(=O)(=O)N(Cc2nc(C(=O)N3CCN(Cc4c[nH]cn4)CC3)co2)C2CC2)c(C)c1 [Ex 249, N-Cyclopropyl-N-[(4-{[4-(1H-imidazol-4-ylmethyl)piperazin-1-yl]carbonyl}-1,3-oxazol-2-yl)methyl]-4-methoxy-2,6-dimethylbenzenesulfonamide] | 10 to 100 |
| COc1cc(C)c(S(=O)(=O)N(C)Cc2nc(C(=O)N3CCN(CCCCN(C)C)CC3)no2)c(C)c1 [Ex 322, N-{[3-({4-[4-(Dimethylamino)butyl]piperazin-1-yl}carbonyl)-1,2,4-oxadiazol-5-yl]methyl}-4-methoxy-N,2,6-trimethylbenzenesulfonamide trifluoroacetate] | 100 to 1000 |
| CCN(Cc1cc(C(=O)N(C)CCc2ccc(C3=NCCN3)cc2)co1)S(=O)(=O)c1c(C)cc(OC)cc1C [Ex 47, N-{2-[4-(4,5-dihydro-1H-imidazol-2-yl)phenyl]ethyl}-5-({ethyl[(4-methoxy-2,6-dimethylphenyl)sulfonyl]amino}methyl)-N-methylfuran-3-carboxamide] | < 10 |
| COc1cc(C)c(S(=O)(=O)N(Cc2cc(C(=O)NCCc3ccc(C4=NCCN4)cc3)co2)CC2CC2)c(C)c1 [Ex 49, 5-({(Cyclopropylmethyl)[(4-methoxy-2,6-dimethylphenyl)sulfonyl]amino}methyl)-N-{2-[4-(4,5-dihydro-1H-imidazol-2-yl)phenyl]ethyl}furan-3-carboxamide] | 10 to 100 |
| COc1cc(C)c(S(=O)(=O)N(C)Cc2cc(C(=O)N(C)Cc3ccc(CN4CCCC4)cc3)co2)c(C)c1 [Ex 9, 5-({[(4-methoxy-2,6-dimethylphenyl)sulfonyl](methyl)amino}methyl)-N-methyl-N-[4-(pyrrolidin-1-ylmethyl)benzyl]furan-3-carboxamide] | 10 to 100 |
| COc1cc(C)c(S(=O)(=O)N(Cc2nc(C(=O)N(C)Cc3ccc(CN4CCC(O)CC4)cc3)co2)C2CC2)c(C)c1 [Ex 181, 2-({Cyclopropyl[(4-methoxy-2,6-dimethylphenyl)sulfonyl]amino}methyl)-N-{4-[(4-hydroxypiperidin-1-yl)methyl]benzyl}-N-methyl-1,3-oxazole-4-carboxamide] | < 10 |
| COc1cc(C)c(S(=O)(=O)N(Cc2nc(C(=O)N3CCN(Cc4cccnc4N)CC3)co2)C2CC2)c(C)c1 [Ex 253, N-{[4-({4-[(2-Aminopyridin-3-yl)methyl]piperazin-1-yl}carbonyl)-1,3-oxazol-2-yl]methyl}-N-cyclopropyl-4-methoxy-2,6-dimethylbenzenesulfonamide] | < 10 |
| COc1cc(C)c(S(=O)(=O)N(Cc2cc(C(=O)N(C)Cc3cccc(CN4CCCC4)c3)co2)C2CC2)c(C)c1 [Ex 55, 5-({Cyclopropyl[(4-methoxy-2,6-dimethylphenyl)sulfonyl]amino}methyl)-N-methyl-N-[3-(pyrrolidin-1-ylmethyl)benzyl]furan-3-carboxamide] | 10 to 100 |
